The record followed here is PubChem BioAssay AID1972 (The Scripps Research Institute Molecular Screening Center, 2009).

SMILES strings stand for the structures.

This assay deals with IEC-6 rat intestinal cells viability, luminescence. Kind of assay: PubChem AID 1972.

Turning to `COc1cc2c(c(OC)c1OC)-c1ccc(O)c(=O)cc1C(NC(C)=O)CC2` (stereo unspecified), the half-maximal inhibitory concentration (IC50) was 121 nM.
